# Active and inactive are the calls of the source.
# Experiments:
# [1] = viability inhibitors of stage V gametocytes – luminescence, dose response (AID 1117278); type: functional, cell-based;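 also: gametocytes exposed to compound for 24 hours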
# [2] = viability loss in human Jurkat cells – cell-based, luminescence, cytotoxicity control for P. falciparum gametocyte viability project, dose response (AID 1117277); type: functional;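 also: potency reflects loss of cellular ATP meaning fewer viable cells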
# [3] = target: DNA dC->dU-editing enzyme APOBEC-3A (Homo sapiens, UniProt P31941); assay: Dose Response confirmation of small molecule APOBEC3A DNA Deaminase Inhibitors via a fluorescence-based single-stranded DNA deaminase assay. [Related pubchem assays (depositor defined):AID493011, AID493024]; type: functional
# Chain of DNA dC->dU-editing enzyme APOBEC-3A (P31941 whole entry): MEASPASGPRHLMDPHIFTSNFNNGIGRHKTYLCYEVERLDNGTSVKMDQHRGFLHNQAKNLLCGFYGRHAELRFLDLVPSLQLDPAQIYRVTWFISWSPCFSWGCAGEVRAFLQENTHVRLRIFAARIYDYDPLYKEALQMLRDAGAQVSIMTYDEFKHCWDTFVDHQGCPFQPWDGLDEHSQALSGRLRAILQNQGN
# [4] = target: DNA dC->dU-editing enzyme APOBEC-3G (Homo sapiens, UniProt Q9HC16); type: functional;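 also: Dose-response counterscreen measuring inhibition of APOBEC3G DNA deaminase activity, run while confirming APOBEC3A inhibitors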
# Chain of DNA dC->dU-editing enzyme APOBEC-3G (Q9HC16 whole entry): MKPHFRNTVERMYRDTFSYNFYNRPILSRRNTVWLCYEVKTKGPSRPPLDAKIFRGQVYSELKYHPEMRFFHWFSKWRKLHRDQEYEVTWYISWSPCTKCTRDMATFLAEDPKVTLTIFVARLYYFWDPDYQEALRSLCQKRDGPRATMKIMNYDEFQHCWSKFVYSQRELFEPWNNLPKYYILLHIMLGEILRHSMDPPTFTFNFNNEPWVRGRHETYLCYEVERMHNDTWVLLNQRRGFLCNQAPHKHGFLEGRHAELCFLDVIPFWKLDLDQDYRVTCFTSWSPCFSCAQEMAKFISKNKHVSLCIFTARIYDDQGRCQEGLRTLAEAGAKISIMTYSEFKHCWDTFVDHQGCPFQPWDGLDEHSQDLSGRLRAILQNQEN
# Coagulation factor XII = target: T1, Coagulation factor XII (Homo sapiens, UniProt P00748); assay: activated coagulation factor XII inhibitor potency, concentration-effect curve, cell-free (AID 716); type: functional
# T1 sequence (P00748 whole entry): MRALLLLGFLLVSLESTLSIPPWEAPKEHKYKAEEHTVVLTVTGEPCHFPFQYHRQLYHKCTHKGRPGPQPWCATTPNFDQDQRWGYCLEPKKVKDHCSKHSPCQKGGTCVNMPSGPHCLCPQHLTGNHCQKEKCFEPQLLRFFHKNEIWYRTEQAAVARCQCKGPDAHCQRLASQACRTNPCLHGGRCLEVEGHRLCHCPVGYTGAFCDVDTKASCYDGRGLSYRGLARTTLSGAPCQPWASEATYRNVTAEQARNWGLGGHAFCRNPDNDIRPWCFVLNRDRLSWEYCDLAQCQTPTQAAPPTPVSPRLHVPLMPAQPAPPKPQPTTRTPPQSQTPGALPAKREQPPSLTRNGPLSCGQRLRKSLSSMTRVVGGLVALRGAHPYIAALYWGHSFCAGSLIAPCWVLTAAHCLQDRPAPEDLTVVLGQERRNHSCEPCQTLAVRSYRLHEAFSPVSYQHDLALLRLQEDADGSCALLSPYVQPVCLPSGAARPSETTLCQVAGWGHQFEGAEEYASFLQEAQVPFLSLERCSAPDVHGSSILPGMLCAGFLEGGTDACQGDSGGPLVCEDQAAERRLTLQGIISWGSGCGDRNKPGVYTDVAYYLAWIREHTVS
# [5] = Vero E6 cell cytotoxicity, dose response, cytotoxicity control for non-replicating M. tuberculosis project, secondary assay (AID 492998); type: functional, VeroE6; conditions: Vero C1008
# [6] = THP-1 cell cytotoxicity, dose response, cytotoxicity control for non-replicating M. tuberculosis project (AID 489025); type: functional
# [7] = HepG2 cell cytotoxicity, dose response, cytotoxicity control for non-replicating M. tuberculosis project (AID 489018); type: functional; conditions: Mycobacterium tuberculosis
# cells = type: functional
# [8] = viability loss of HPDE-C7K cells – cell-based, fluorescence, HTS, primary screen (AID 431); type: functional; conditions: Homo sapiens
# [9] = HPDE-C7 pancreatic duct cell viability loss – fluorescence, HTS (AID 430); type: functional, cell-based; conditions: Homo sapiens
# Prothrombin = Prothrombin (Homo sapiens, UniProt P00734); assay: Thrombin 1536 HTS Dose Response Confirmation. [Related pubchem assays: 1046 (Thrombin 1536 HTS; hits were confirmed in this assay)]; type: functional
# [10] = target: T2, Sentrin-specific protease 8 (Homo sapiens, UniProt Q96LD8); type: functional
# T2 sequence (Q96LD8 whole entry): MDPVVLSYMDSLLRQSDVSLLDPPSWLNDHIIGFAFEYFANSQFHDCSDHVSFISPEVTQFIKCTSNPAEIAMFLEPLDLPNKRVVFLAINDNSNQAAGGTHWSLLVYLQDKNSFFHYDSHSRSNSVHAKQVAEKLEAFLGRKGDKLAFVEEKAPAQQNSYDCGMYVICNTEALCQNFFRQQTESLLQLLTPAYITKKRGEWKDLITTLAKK
# [11] = target: Luciferin 4-monooxygenase (Photinus pyralis, UniProt P08659); assay: Counter Screen for Luciferase-based Assay Positives. [Related pubchem assays: 620, 618, 411 ]
# Chain of Luciferin 4-monooxygenase (P08659 whole entry): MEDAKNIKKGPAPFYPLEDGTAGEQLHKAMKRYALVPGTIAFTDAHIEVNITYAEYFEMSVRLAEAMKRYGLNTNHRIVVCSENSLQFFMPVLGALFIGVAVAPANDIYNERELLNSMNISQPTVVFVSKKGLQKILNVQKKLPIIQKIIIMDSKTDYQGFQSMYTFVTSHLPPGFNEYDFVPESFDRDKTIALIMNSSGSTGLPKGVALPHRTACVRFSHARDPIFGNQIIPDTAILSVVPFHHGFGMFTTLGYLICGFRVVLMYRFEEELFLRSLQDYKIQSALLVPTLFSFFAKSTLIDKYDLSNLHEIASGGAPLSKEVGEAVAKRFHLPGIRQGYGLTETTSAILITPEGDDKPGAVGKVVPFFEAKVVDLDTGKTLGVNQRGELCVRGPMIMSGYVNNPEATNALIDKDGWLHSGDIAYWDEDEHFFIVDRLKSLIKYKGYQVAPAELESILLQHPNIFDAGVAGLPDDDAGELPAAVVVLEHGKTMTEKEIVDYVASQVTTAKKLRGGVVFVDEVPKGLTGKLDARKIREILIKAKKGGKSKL
# HT-1080 = assay: HT1080 cell viability loss – fluorescence readout (AID 620); type: functional, cell-based; conditions: Homo sapiens
# [12] = target: Melanin-concentrating hormone receptor 1 (Homo sapiens, UniProt Q99705); assay: Fluorescence-based counterscreen for antagonists of the G-protein coupled receptor 7 (GPR7): cell-based high throughput dose response assay to identify antagonists of the melanin-concentrating hormone receptor 1 (MCHR1).; type: functional
# Chain of Melanin-concentrating hormone receptor 1 (Q99705 whole entry): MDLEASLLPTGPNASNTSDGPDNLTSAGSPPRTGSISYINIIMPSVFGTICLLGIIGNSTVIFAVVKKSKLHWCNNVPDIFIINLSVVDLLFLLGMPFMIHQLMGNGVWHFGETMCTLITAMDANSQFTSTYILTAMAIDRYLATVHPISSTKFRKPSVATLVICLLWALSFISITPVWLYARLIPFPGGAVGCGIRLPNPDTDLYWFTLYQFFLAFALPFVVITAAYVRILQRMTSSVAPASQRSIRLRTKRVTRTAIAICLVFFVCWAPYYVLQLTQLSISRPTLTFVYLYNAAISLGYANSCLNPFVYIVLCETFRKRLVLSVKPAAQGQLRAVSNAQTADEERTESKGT
smiles,measurement,setting,value
CC(=O)C[C@@H](O)CC(=O)[C@H]1OC(=O)CC/C=C\Cc2ccccc21,IC50,[1],> 109 µM (inactive)
same,IC50,[2],> 83.3 µM (inactive)
CCN1CCN(c2ccc(S(=O)(=O)N3CCOCC3)cc2NC(=O)C(C)Oc2ccc(Cl)cc2)CC1 (stereo not drawn),IC50,[3],9.56 µM (active)
same,IC50,[4],14.7 µM (active)
COc1ccc(-n2c(Cc3cccs3)nnc2SCC(=O)Nc2ccc3c(c2)OCCO3)cc1,IC50,Coagulation factor XII,> 50 µM (inactive)
Oc1nc(-c2ccccn2)nc2ccccc12,CC50,[5],19.6 µM (active)
same,CC50,[6],> 40 µM (active)
same,CC50,[7],> 20 µM (active)
same,IC50,cells,3.56 µM (active)
CCn1cc(C(=O)N2CCc3ccccc32)c(=O)c2cc(S(=O)(=O)N3CCOCC3)ccc21,EC50,[8],> 20 µM (not active)
same,EC50,[9],> 20 µM (not active)
CC(C)CNC(=O)CCCc1ccccc1,IC50,[1],> 109 µM (inactive)
same,IC50,[2],> 83.4 µM (inactive)
O=C(CCC1COc2ccccc2O1)NCc1ccco1 (stereo not drawn),IC50,Coagulation factor XII,> 50 µM (inactive)
O=C(COC(=O)c1cncc(Br)c1)NC1CCCCCC1,IC50,[1],> 109 µM (inactive)
same,IC50,[2],> 83.3 µM (inactive)
CN(C)c1ccc(NC(=O)c2ccc(Cn3cc([N+](=O)[O-])cn3)cc2)cc1,IC50,Prothrombin,> 50 µM (not active)
same,IC50,[10],23.2 µM (active)
O=C(c1ccco1)N1CCN(S(=O)(=O)c2ccc(Oc3ccccc3)cc2)CC1,IC50,Coagulation factor XII,> 50 µM (inactive)
COc1ccc(-c2cn3nc4c(nc3n2)CCCC4)cc1,EC50,[11],0.46 µM (active)
same,EC50,HT-1080,> 50 µM (not active)
CC(=O)NCC(=O)OCC(=O)Nc1ccc(C(C)=O)cc1,IC50,Coagulation factor XII,> 50 µM (inactive)
Cc1cc([N+](=O)[O-])cc(C)c1OCC(=O)N/N=C/c1ccc(OC(=O)c2ccccc2)cc1,IC50,[12],> 43.8 µM (not active)
